Results reported in the NIST ThermoML archive (doi:10.1021/je050413l).
Where “and” joins values, the source holds several entries; their conditions need not be identical. Equal values may be shown once. ± gives the expanded uncertainty stated by the source.

How the values were obtained:
[1] = 303.15 K, Liquid; for speed of sound / viscosity: 101 kPa; for mass density: 101.33 kPa, Pycnometric method
[2] = xn = mol fraction of the nth substance listed; settings: 303.15 K, 101 kPa, Liquid, Direct dilatometry
[3] = φn = volume fraction of the nth substance listed; settings: 303.15 K, 101 kPa, Liquid

Cc1ccc(Cl)cc1 [4-chlorotoluene]
[1]
Settings | mass density [kg/m3] | speed of sound [m/s] | viscosity [mPa·s]
– | 1060.54 ± 2.8 | 1271 ± 12 | 0.9 ± 0.032

Cc1ccc(Cl)cc1 [4-chlorotoluene] + CC(=O)c1ccccc1
Settings | excess molar volume, [2] [m3/mol] | speed of sound, [3] [m/s] | viscosity, [3] [mPa·s]
x2 = 0.087 | 1.6e-08 ± 6e-09 | – | –
x2 = 0.1206 | 2e-08 ± 6e-09 | – | –
x2 = 0.2175 | 2.7e-08 ± 6e-09 | – | –
x2 = 0.3009 | 3.4e-08 ± 6e-09 | – | –
x2 = 0.4017 | 4.1e-08 ± 6e-09 | – | –
x2 = 0.5224 | 4.4e-08 ± 6e-09 | – | –
x2 = 0.6211 | 3.9e-08 ± 6e-09 | – | –
x2 = 0.7025 | 3.2e-08 ± 6e-09 | – | –
x2 = 0.8214 | 2.1e-08 ± 6e-09 | – | –
x2 = 0.8774 | 1.6e-08 ± 6e-09 | – | –
φ2 = 0 | – | 1271 ± 12 | 0.9 ± 0.032
φ2 = 0.0807 | – | 1304 ± 12 | 0.903 ± 0.032
φ2 = 0.1193 | – | 1314 ± 12 | 1.011 ± 0.035
φ2 = 0.2153 | – | 1343 ± 12 | 1.058 ± 0.037
φ2 = 0.2982 | – | 1371 ± 12 | 1.118 ± 0.039
φ2 = 0.3986 | – | 1406 ± 12 | 1.198 ± 0.042
φ2 = 0.5192 | – | 1419 ± 12 | 1.286 ± 0.045
φ2 = 0.6181 | – | 1430 ± 12 | 1.352 ± 0.047
φ2 = 0.6998 | – | 1440 ± 12 | 1.4 ± 0.048
φ2 = 0.8195 | – | 1448 ± 13 | 1.469 ± 0.051
φ2 = 0.876 | – | 1453 ± 13 | 1.496 ± 0.051

CC(=O)c1ccccc1 [acetophenone]
[1]
Settings | mass density [kg/m3] | speed of sound | viscosity [mPa·s]
– | 1019.43 ± 2.7 | 1460 ± 8 m/s and 1466 ± 8 m/s | 1.511 ± 0.052

CC(=O)c1ccccc1 [acetophenone] + Cc1ccc(Cl)cc1
[3], φ1 = 1
Settings | speed of sound [m/s] | viscosity [mPa·s]
– | 1460 ± 13 | 1.511 ± 0.052

CC(=O)c1ccccc1 [acetophenone] + Cc1cccc(Cl)c1
[3], φ1 = 1
Settings | speed of sound [m/s] | viscosity [mPa·s]
– | 1460 ± 8 | 1.511 ± 0.052

CC(=O)c1ccccc1 [acetophenone] + Cc1cccc([N+](=O)[O-])c1
[3], φ1 = 1
Settings | speed of sound [m/s] | viscosity [mPa·s]
– | 1466 ± 9 | 1.511 ± 0.052

CC(=O)c1ccccc1 [acetophenone] + Cc1ccccc1Cl
Settings | excess molar volume, [2] [m3/mol] | speed of sound, [3] [m/s] | viscosity, [3] [mPa·s]
x1 = 0.0901 | 6e-09 ± 6e-09 | – | –
x1 = 0.151 | 9e-09 ± 6e-09 | – | –
x1 = 0.2271 | 1.3e-08 ± 6e-09 | – | –
x1 = 0.3205 | 1.6e-08 ± 6e-09 | – | –
x1 = 0.4021 | 1.8e-08 ± 6e-09 | – | –
x1 = 0.5219 | 2e-08 ± 6e-09 | – | –
x1 = 0.6224 | 2e-08 ± 6e-09 | – | –
x1 = 0.702 | 1.8e-08 ± 6e-09 | – | –
x1 = 0.8194 | 1.5e-08 ± 6e-09 | – | –
x1 = 0.9005 | 9e-09 ± 6e-09 | – | –
φ1 = 0.09 | – | 1310 ± 7 | 0.901 ± 0.032
φ1 = 0.1508 | – | 1326 ± 7 | 0.949 ± 0.033
φ1 = 0.2269 | – | 1345 ± 8 | 0.999 ± 0.035
φ1 = 0.3202 | – | 1368 ± 8 | 1.066 ± 0.037
φ1 = 0.4018 | – | 1387 ± 8 | 1.123 ± 0.039
φ1 = 0.5216 | – | 1409 ± 8 | 1.225 ± 0.043
φ1 = 0.6221 | – | 1423 ± 8 | 1.305 ± 0.045
φ1 = 0.7017 | – | 1432 ± 8 | 1.41 ± 0.049
φ1 = 0.8192 | – | 1448 ± 8 | 1.465 ± 0.05
φ1 = 0.9004 | – | 1451 ± 8 | 1.502 ± 0.052
φ1 = 1 | – | 1460 ± 8 | 1.511 ± 0.052

CC(=O)c1ccccc1 [acetophenone] + Cc1ccccc1[N+](=O)[O-]
[3], φ1 = 1
Settings | speed of sound [m/s] | viscosity [mPa·s]
– | 1460 ± 9 | 1.511 ± 0.052
